One series relates to HEK293. The experiment in a line: Cytotoxicity against HEK293 cells assessed as reduction in cell viability at 100 to 8000 nM incubated for 24 hrs by MTT assay. The format is toxicity, cell-based. Particulars: human, hek293, 24 h, 8 µM, dose 100-8000 nM. For orientation: Tetrazolium dyes change colour on reduction, which living cells bring about.
Series [1] has as its target T1, Peroxisome proliferator-activated receptor gamma (Homo sapiens, UniProt P37231).
T1 sequence (P37231 whole entry): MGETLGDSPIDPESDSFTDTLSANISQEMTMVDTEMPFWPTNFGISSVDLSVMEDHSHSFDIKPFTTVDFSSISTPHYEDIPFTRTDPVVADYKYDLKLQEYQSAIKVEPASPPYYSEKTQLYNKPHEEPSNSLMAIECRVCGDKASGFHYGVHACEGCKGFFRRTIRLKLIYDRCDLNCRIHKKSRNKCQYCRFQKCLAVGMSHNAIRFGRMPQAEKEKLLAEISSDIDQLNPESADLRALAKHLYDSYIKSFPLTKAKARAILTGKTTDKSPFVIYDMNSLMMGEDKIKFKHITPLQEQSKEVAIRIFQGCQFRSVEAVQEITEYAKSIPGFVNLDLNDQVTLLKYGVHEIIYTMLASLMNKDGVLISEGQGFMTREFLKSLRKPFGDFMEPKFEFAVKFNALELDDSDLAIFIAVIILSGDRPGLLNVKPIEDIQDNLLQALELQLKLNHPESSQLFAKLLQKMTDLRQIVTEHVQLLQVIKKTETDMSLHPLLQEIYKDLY
The experiment in a line: Agonist activity at PPARgamma in HEK293 cells assessed as transactivation incubated for 5 to 10 mins by microplate reader analysis. It counts as cell-based.

The nature of series [2]: Toxicity in Swiss albino mouse assessed as reduction in body weight at 10 mg/kg, po measured for 15 days. It counts as organism-based. As to conditions: in vivo, 360 h, time 15 day.
Series [3] can be described thus: Toxicity in Zebra fish assessed as change in body weight at 10 mg/kg measured after 10 days. It counts as organism-based, Danio rerio. Particulars: zebrafish, in vivo, 240 h, time 10 day.
In series [4] the test system is Mus musculus. The experiment in a line: Antidiabetic activity in STZ-induced Swiss albino diabetic mouse model assessed as blood glucose levels at 36 mg/kg, po measured after 120 mins by oral glucose tolerance test. It counts as functional. As to conditions: 2 h.
Series [5] relates to Mus musculus. The experiment in a line: Antidiabetic activity in STZ-induced Swiss albino diabetic mouse model assessed as blood glucose levels at 36 mg/kg, po measured after 30 mins by oral glucose tolerance test (reference value: 213.5 mg/dl). It counts as functional. As to conditions: 0.5 h.
The next series deals with Danio rerio. The experiment in a line: Antidiabetic activity in STZ-induced Zebra fish diabetic model assessed as blood glucose level at 36 mg/kg measured after 10 days. The format is functional. Particulars: time 10 day.
Series [6] has as its system Mus musculus. The experiment in a line: Antidiabetic activity in STZ-induced Swiss albino diabetic mouse model assessed as reduction in LDL level in serum at 36 mg/kg, po (reference value: 61.83 +/- 4.08 mg/dl). The format is functional.
Series [7] can be described thus: Toxicity in Swiss albino mouse assessed as reduction in body weight at 36 mg/kg, po measured for 15 days. It counts as organism-based. Particulars: in vivo, 360 h, time 15 day.
The test system of series [8] is Mus musculus. The experiment in a line: Antidiabetic activity in STZ-induced Swiss albino diabetic mouse model assessed as increase in HDL level in serum at 36 mg/kg, po (reference value: 26 +/- 4.83 mg/dl). It counts as functional.
Series [9] concerns Mus musculus. The experiment in a line: Antidiabetic activity in STZ-induced Swiss albino diabetic mouse model assessed as reduction in triglyceride level in serum at 36 mg/kg, po (reference value: 131.83 +/- 12.12 mg/dl). It counts as functional.
The subject of series [10] is Mus musculus. The experiment in a line: Antidiabetic activity in STZ-induced Swiss albino diabetic mouse model assessed as blood glucose levels at 36 mg/kg, po measured immediately by oral glucose tolerance test (reference value: 234.5 mg/dl). It counts as functional.
In series [11] the test system is Mus musculus. The experiment in a line: Antidiabetic activity in STZ-induced Swiss albino diabetic mouse model assessed as blood glucose levels at 36 mg/kg, po measured after 60 mins by oral glucose tolerance test (reference value: 199.16 mg/dl). The format is functional. Particulars: 1 h.
In series [12] the test system is Mus musculus. The experiment in a line: Antidiabetic activity in STZ-induced Swiss albino diabetic mouse model assessed as increase in total cholesterol level in serum at 36 mg/kg, po (reference value: 51.16 +/- 6.89 mg/dl). It counts as functional.
Series [13] deals with Mus musculus. The experiment in a line: Antidiabetic activity in STZ-induced Swiss albino diabetic mouse model assessed as blood glucose levels at 36 mg/kg, po measured on day 1,3,5,7 and 15 by glucometer. It counts as functional. As to conditions: time 15 day.

As usually defined, the EC50 is the concentration giving half of the maximal effect. In the case of `Cc1ccc(CN2C(=O)S/C(=C\c3ccc(Nc4ccc(Cl)cc4)cc3)C2=O)cc1`, the Activity entry in the series on HEK293 is recorded as “Non-Toxic”. Besides, in series [1], the EC50 stood at 1360 nM.

For `Cc1ccc(CN2C(=O)S/C(=C\c3ccc(Nc4cccc(Cl)c4)s3)C2=O)cc1`, the Activity entry (with HEK293; in series [2]; in [3]) was “Non-Toxic” throughout.

As to `Cc1ccc(CN2C(=O)S/C(=C\c3ccc(Nc4ccc(Cl)cc4)s3)C2=O)cc1`, in the series on HEK293, the Activity result is on record as “Non-Toxic”. Also, in [1], the half-maximal effective concentration (EC50) was found to be 1470 nM.

Consider `Cc1ccc(CN2C(=O)S/C(=C\c3ccc(Nc4ccccc4[N+](=O)[O-])s3)C2=O)cc1`, for which the Activity result in the series on HEK293 is on record as “Non-Toxic”.

Consider `Cc1ccc(CN2C(=O)S/C(=C\c3ccc(Oc4ccccc4)s3)C2=O)cc1`, for which the Activity entry with HEK293 is “Non-Toxic”. In addition, the EC50 in series [1] is 2740 nM.

Regarding `Cc1ccc(CN2C(=O)S/C(=C\c3ccc(Nc4ccc([N+](=O)[O-])cc4)s3)C2=O)cc1`, the Activity result in the series on HEK293 is given as “Non-Toxic”. Further, the EC50 in series [1] was 1550 nM.

Turning to `Cc1ccc(CN2C(=O)S/C(=C\c3ccc(OCc4ccccc4)s3)C2=O)cc1`, the Activity entry in the series with HEK293 is given as “Non-Toxic”. In [1], the EC50 stood at 2010 nM.

With `Cc1ccc(CN2C(=O)S/C(=C\c3ccc(Nc4ccccc4Cl)s3)C2=O)cc1`, the Activity entry (with HEK293; in series [3]) was “Non-Toxic” each time.

Consider `COc1cccc(CN2C(=O)S/C(=C\c3ccc(Nc4ccc(Cl)cc4)cc3)C2=O)c1`, for which, in the series with HEK293, the Activity entry is reported as “Non-Toxic”.

For `COc1cccc(CN2C(=O)S/C(=C\c3ccc(Nc4cccc(Cl)c4)cc3)C2=O)c1`, the Activity entry in the series on HEK293 is recorded as “Non-Toxic”.

With `Cc1ccc(CN2C(=O)S/C(=C\c3ccc(Oc4ccc([N+](=O)[O-])cc4)s3)C2=O)cc1`, the Activity result in the series on HEK293 is “Non-Toxic”. The EC50 in series [1] amounted to 1540 nM.

`Cc1ccc(CN2C(=O)S/C(=C\c3ccc(Oc4ccc5ccccc5c4)s3)C2=O)cc1`: the Activity entry with HEK293 is recorded as “Non-Toxic”. Besides, the concentration giving a half-maximal response (EC50) in [1] was 3570 nM.

With `CCc1ccc(CCOc2ccc(CC3SC(=O)NC3=O)cc2)nc1` (centres undefined) [PIOGLITAZONE], the Activity with Mus musculus [4] was 112 mg/dL; in the series with Mus musculus [5], 214.16 mg/dL; in the series with Danio rerio it was 112 mg/dL; in the series on HEK293 it was “Non-Toxic”; in the series with Mus musculus [6], 30.16 mg/dL; in [7], “Non-Toxic”. In addition, the Activity in the series on Mus musculus [8] was found to be 26 mg/dL; with Mus musculus [9], 52 mg/dL; with Mus musculus [10], 234.8 mg/dL; in the series with Mus musculus [11], 150.83 mg/dL; with Mus musculus [12], 51.16 mg/dL; in the series on Mus musculus [13] it was 132.2 mg/dL.

For the origin of these results see ChEMBL document CHEMBL5634122, “Integrated fragment-based drug design and virtual screening techniques for exploring the antidiabetic potential of thiazolidine-2,4-diones: Design, synthesis and in vivo studies” (Eur J Med Chem, 2023).
